Like-named read-outs stand apart in the source and are kept apart here.
Legend:
Serotonin 5-HT2A (human) = Serotonin 5-HT2A (human) (Homo sapiens (Human), UniProt P28223); assay: 5-HT2A receptor binding, [3H]-ketanserin competition in membrane fractions; settings: 1 nM [3H]-ketanserin, Cheng-Prusoff, N=1-3
5-HT2A = 5-HT2A (Homo sapiens (Human), UniProt P28223); assay: 5-HT2A Gq-mediated calcium flux functional assay; type: cell-based
5-HT2B = 5-HT2B (Homo sapiens (Human), UniProt P41595); assay: 5-HT2B Gq-mediated calcium flux functional assay; type: cell-based
5-HT2C = 5-HT2C (Homo sapiens (Human), UniProt P28335); assay: 5-HT2C Gq-mediated calcium flux functional assay; type: cell-based
5-HT1A = 5-HT1A (Homo sapiens (Human), UniProt P08908); assay: 5-HT1A Gi/o-mediated cAMP inhibition, GloSensor assay; type: cell-based
C57BL/6J mice = assay: Head-Twitch Response (HTR) in mice; type: in vivo; settings: for ED50: Mus musculus, ip, 0.5 h; for HTR counts over baseline / induction of HTR: compared to vehicle
Protocol: Male C57BL/6J mice (6-8 weeks old) were obtained from Jackson Laboratories (Bar Harbor, ME) and housed in a vivarium at the University of California San Diego, an AAALAC-approved animal facility that meets all federal and state requirements for care and treatment of laboratory animals. All animal experiments were carried out in accordance with NIH guidelines and were approved by the UCSD Institutional Animal Care and Use Committee. Mice were housed up to four per cage in a climate-controlled room on a reverse-light cycle (lights on at 1900 h, off at 0700 h). Animals were provided with ad libitum access to food and water, with the exception of during behavioral testing.
Testing was conducted between 1000 and 1800 h. Head movements were recorded using a head-mounted magnet and a magnetometer coil as described in Halberstadt et al. (Psychopharmacology, 2013, 227(4):727-739). For the head mounted magnet, mice were anesthetized, an incision was made in the scalp, and a neodymium magnet was attached to the dorsal surface of the cranium using dental cement. Following a 2-week recovery period, behavioral experiments were conducted in a well-lit room. At least 7 days occurred between sessions to avoid any carryover effects. Test substances (i.e., dimethyltryptamine (DMT), diethyltryptamine (DET), psilocybin, 6-fluoro-diethyltryptamine (6-F-DET), compounds 3-4, 6, 9, 12-13, 22, 33, 41, 69, 88, 166, and 178) were administered intraperitoneally (IP) at a volume of 5 mL/kg. Mice were treated with vehicle (saline) or 6 doses of the test compound and then placed in a glass cylinder surrounded by a magnetometer coil and tested for 30 min. Coil voltage was filtered (1 kHz lowpass), digitized (20 kHz sampling rate) and saved to disk using a Powerlab/8SP with LabChart v 7.3.2 (ADInstruments, Colorado Springs, CO).
The entire 30 min recordings were examined for head twitches. Established procedures based on artificial intelligence were used to identify head twitches in the recordings (Scientific Reports, 2020, 10(1):1-12). HTR counts were analyzed using one-way analyses of variance (ANOVA), followed by post hoc pairwise comparisons between individual groups and vehicle using Dunnett's multiple comparisons test. […] Median effective doses (ED50 values) and 95% confidence intervals (95% CI) were calculated using nonlinear regression (Prism 9.0.2, GraphPad Software, San Diego, CA) (Table 4 and FIGS. 1-3).

[1] = Metabolic stability in cryopreserved human hepatocytes; type: in vitro ADME; settings: cryopreserved hepatocytes, human hepatocytes, 1 μM, 37° C.; for hepatocyte CLint at 1 μM: read-out: Clint (μL/min/10^6 cells)
Protocol: (§1) The metabolic stability of a test compounds were assessed by monitoring disappearance of each compound in the presence of cryopreserved hepatocytes for up to 1 hour at 37° C. Following protein precipitation and centrifugation, the samples were analyzed by UPLC-MS-MS. Test Compound stock solutions (10 mM) were diluted 1 in 100 (2 μL 10 mM DMSO stock+198 μL 50:50 acetonitrile:water) to provide a 100 μM working solution. Following addition of test compounds to buffer, samples were pre-incubated at 37° C. for 5 minutes prior to initiating the incubation by the addition of test compounds to hepatocytes (these were held at 37° C. during pre-incubation period). Aliquots were sampled at 0, 5, 10, 20, 40 and 60 min and added to ice cold acetonitrile to terminate the reaction and precipitate proteins. All samples were mixed, centrifuged, and the supernatants were analyzed by UPLC-MS-MS using a Phenomenex Luna Omega […], C18 100 Å, 50×2.1 mm column. The final incubation conditions were as follows: hepatocytes 0.5×10^6 viable cells/mL, test compound 1 μM (n=1), acetonitrile concentration<0.01% (v/v) and DMSO concentration<0.01% (v/v). The intrinsic clearance (Clint) and half-life (T1/2) values are determined from the slope of the parent depletion curve. Positive control compounds with known metabolic clearance were included (diltiazem and naloxone).

human hepatocytes = assay: as above; type: in vitro ADME
Protocol: as §1

[2] = cAMP inhibition, 0.2 μM isoproterenol, IA = Inactive
[3] = read-out: HTR ED50 μmol/kg (95% CI)
[4] = read-out: HTR ED50 mg/kg (95% CI)
[5] = human hepatocytes, 1 μM, 37° C.

Chain of 5-HT2C (P28335 whole entry, looked up): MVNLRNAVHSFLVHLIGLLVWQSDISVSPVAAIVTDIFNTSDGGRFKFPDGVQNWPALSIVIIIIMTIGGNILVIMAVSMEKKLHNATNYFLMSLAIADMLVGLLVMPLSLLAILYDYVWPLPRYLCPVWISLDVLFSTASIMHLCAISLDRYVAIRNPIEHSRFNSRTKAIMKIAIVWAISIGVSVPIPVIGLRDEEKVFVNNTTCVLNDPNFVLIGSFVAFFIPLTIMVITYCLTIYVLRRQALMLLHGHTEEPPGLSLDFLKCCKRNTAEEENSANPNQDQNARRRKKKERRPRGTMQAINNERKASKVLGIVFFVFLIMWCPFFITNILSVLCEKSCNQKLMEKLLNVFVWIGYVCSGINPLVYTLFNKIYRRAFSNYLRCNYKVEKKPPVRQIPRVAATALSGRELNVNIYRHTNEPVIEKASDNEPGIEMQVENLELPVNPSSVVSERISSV
Chain of 5-HT2B (P41595 whole entry): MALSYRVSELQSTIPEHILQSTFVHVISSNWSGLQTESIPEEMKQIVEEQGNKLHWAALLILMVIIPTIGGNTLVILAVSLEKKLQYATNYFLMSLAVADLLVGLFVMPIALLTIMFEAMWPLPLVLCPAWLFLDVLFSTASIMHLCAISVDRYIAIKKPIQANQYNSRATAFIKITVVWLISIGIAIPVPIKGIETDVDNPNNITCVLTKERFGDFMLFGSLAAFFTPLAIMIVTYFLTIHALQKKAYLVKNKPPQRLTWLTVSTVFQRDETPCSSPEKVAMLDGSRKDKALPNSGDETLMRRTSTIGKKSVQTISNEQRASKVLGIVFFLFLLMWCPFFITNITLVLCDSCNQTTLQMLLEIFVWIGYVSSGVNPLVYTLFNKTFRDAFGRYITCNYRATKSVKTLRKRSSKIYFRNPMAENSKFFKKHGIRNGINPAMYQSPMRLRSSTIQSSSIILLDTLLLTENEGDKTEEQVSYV

SMILES	5-HT2A pKi ± SEM (Serotonin 5-HT2A (human))	EC50 (5-HT2A) [nM]	5-HT2A-Ca2+ FLUX Emax (% 5-HT) (5-HT2A; IA = Inactive, N=1-3)	EC50 (5-HT2B) [nM]	5-HT2B-Ca2+ FLUX Emax (% 5-HT) (5-HT2B; IA = Inactive, N=1-3)	EC50 (5-HT2C) [nM]	5-HT2C-Ca2+ FLUX Emax (% 5-HT) (5-HT2C; IA = Inactive, N=1-3)	EC50 (5-HT1A) [nM]	5-HT1A-cAMP Emax (% 5-HT) (5-HT1A; [2])	ED50 (C57BL/6J mice; [3]) [µmol/kg]	ED50 (C57BL/6J mice; [4]) [mg/kg]	also measured
CCCN(CCc1c[nH]c2ccc(F)cc12)C(C)C [Example 4, N-(2-(5-fluoro-1H-indol-3-yl)ethyl)-N-isopropylpropan-1-amine]	6.02 ± 0.07	0.468	99.5 ± 1.1	0.759	105.60 ± 0.7	9.12	74.6 ± 2.0	331	80.5 ± 2.5	2.18	0.65	HTR counts over baseline / induction of HTR (C57BL/6J mice): significant increase; half-life at 1 μM [1]: 13 min; hepatocyte CLint at 1 μM [1]: 109 µL/min/1e6 cells; metabolism by human hepatocytes (human hepatocytes; qualitative statement): rapidly metabolized
CCCN(CC)CCc1c[nH]c2cc(F)c(F)cc12 [Example 9, N-(2-(5,6-difluoro-1H-indol-3-yl)ethyl)-N-ethylpropan-1-amine]	6.15 ± 0.21	1.02	105.7 ± 1.9	1.7	96.6 ± 2.0	19.1	100.7 ± 3.0	229	89.1 ± 2.9	3	0.91	HTR counts over baseline / induction of HTR (C57BL/6J mice): significant increase; melting point: 83 to 86 °C
CCCN(C)CCc1c[nH]c2ccc(F)cc12 [Example 13, N-(2-(5-fluoro-1H-indol-3-yl)ethyl)-N-methylpropan-1-amine]	6.72 ± 0.12	1.58	103.0 ± 1.1	2.63	77.0 ± 1.2	1.51	115.0 ± 4.0	245	85.8 ± 2.5	4.81	1.13	melting point: 80 to 82 °C
CCCN(CCc1c[nH]c2ccc(F)cc12)C(C)CC (stereo not shown) [compound 22, N-(2-(5-fluoro-1H-indol-3-yl)ethyl)-N-propylbutan-2-amine]	5.97 ± 0.02	0.891	105.4 ± 1.6	0.813	98.9 ± 1.6	50.1	97.5 ± 2.6	324	102.90 ± 1.9	12.4	3.88	–
CCCN(CCc1c[nH]c2ccc(F)cc12)C1CCC1 [compound 33, N-(2-(5-fluoro-1H-indol-3-yl)ethyl)-N-propylcyclobutanamine]	6.25 ± 0.003	0.49	107.0 ± 1.9	0.589	115.6 ± 2.2	19.1	105.4 ± 1.8	14.5	100.7 ± 1.3	2.55	0.79	5-HT2A-Ca2+ FLUX pEC50 (5-HT2A; IA = Inactive, N=1-3): 9.31 ± 0.06; 5-HT2B-Ca2+ FLUX pEC50 (5-HT2B; IA = Inactive, N=1-3): 9.23 ± 0.07; 5-HT2C-Ca2+ FLUX pEC50 (5-HT2C; IA = Inactive, N=1-3): 7.72 ± 0.05; 5-HT1A-cAMP pEC50 (5-HT1A; [2]): 7.84 ± 0.04
CCN(C)CCc1c[nH]c2c(F)cc(OC)cc12 [compound 88, N-ethyl-2-(7-fluoro-5-methoxy-1H-indol-3-yl)-N-methylethan-1-amine]	6.71 ± 0.31	1.95	90.6 ± 0.8	5.62	37.5 ± 0.7	20.4	86.8 ± 1.4	–	–	1.95	0.56	–
CCCN(CC)CCc1c[nH]c2c(F)cc(C)cc12 [compound 166, N-ethyl-N-(2-(7-fluoro-5-methyl-1H-indol-3-yl)ethyl)propan-1-amine]	5.96 ± 0.25	18.2	98.1 ± 0.7	33.1	95.9 ± 0.7	200	94.6 ± 1.7	–	–	6.56	1.96	–
C=CC(C)N(C)CCc1c[nH]c2ccc(F)cc12 (stereo not shown) [compound 178, N-(2-(5-fluoro-1H-indol-3-yl)ethyl)-N-methylbut-3-en-2-amine]	6.25	5.37	84.7 ± 1.2	5.5	27.7 ± 0.5	15.8	87.4 ± 1.5	–	–	3.53	0.87	–
COc1ccc([C@@H]2Sc3ccccc3N(CCN(C)C)C(=O)[C@@H]2OC(C)=O)cc1 [diltiazem, reference compound]	–	–	–	–	–	–	–	–	–	–	–	Clint (μL/min/10^6 cells) (human hepatocytes; [5]): 32 μL/min/10^6 cells; T1/2 (human hepatocytes; [5]): 44 min
C=CCN1CC[C@]23c4c5ccc(O)c4O[C@H]2C(=O)CC[C@@]3(O)[C@H]1C5 [naloxone, reference compound]	–	–	–	–	–	–	–	–	–	–	–	half-life at 1 μM [1]: 10 min; hepatocyte CLint at 1 μM [1]: 138 µL/min/1e6 cells

Reference: US20240286998A1, “F[…], ANALOGUES THEREOF, AND METHODS USING SAME” (Saint Joseph's University, priority 2021, published 2024)
